Data as given in patent publication US20180077929A1, “METHODS AND SYSTEMS FOR TREATING MEDICAL DEVICES AND FLUIDS” (priority 2016, published 2018).
“And” between values parts separate entries of the source, which are not always exact repeats. Equal values may be shown once.

What was measured:
[1] = Suture testing in aqueous suspension of CaSt; format: biochemical
Experimental: Treatment of sutures in aqueous suspensions of CaSt was performed as follows: Suture used was VICRYL® (Polyglactin 910) suture made of a copolymer made from 90% glycolide and 10% L-lactide, Size 1, 27 inch pieces. Endotoxin sources used were sitting (or stagnant) Rain Water (SRW) and diluted with LRW to obtain a concentration of (3980 EU/mL). Endosafe LAL Reagent Water (LRW) was used, manufactured by Charles River Laboratories, Charleston S.C.
Eight strands of suture were placed in tubing with LPS (endotoxin) solution for 10 minutes at a time. The sutures were dried for 20 minutes and then placed in round bottom tubes. Suspensions of 5% by weight CaSt in LAL Reagent Water were prepared. (0.5 g CaSt in 10 mL LRW). One suture was placed in each tube and vortexed in this solution for approximately 10 seconds. The sutures were removed and allowed to dry for 20 minutes and then placed in round bottom tubes. This was done for 3 sutures. Three pieces of suture, serving as the control, were not submerged in any solutions and placed in test tubes. 3 mL of LAL reagent water was added to each test tube, vortexed vigorously for 1 minute, and then placed in a hot water bath at 37° C. for 1 hour. They were then removed, vortexed vigorously for 1 minute, diluted, and tested on the MCS system. The water that was mixed with the calcium stearate was also tested. Two sutures were submerged in LRW that was mixed with calcium stearate. The LRW was separated from the calcium stearate before two sutures were submerged. These were also tested for endotoxin on the MCS.

[2] = Animal study: calcium stearate alone dosed intraperitoneally (NC-2); format: in vivo; details: NC-2: 0.2 g Calcium Stearate in 5.0 mL normal saline, intraperitoneal, female rats, observed 4 days
Experimental: An animal study was conducted with 30 female rats with weights ranging from 250-300 g and acclimated for 5 days. All rats were dosed with intraperitoneal injections using 18 gauge needles. The rats were broken into 6 groups. A negative control (NC-1) dosed 5 rats with 5 mL of normal saline solution. […] A positive control (PC-1) dosed 5 rats with 2.5 million EU in a 5 mL saline solution. A second positive control (PC-2) was conducted dosing 5 rats with 5 million endotoxin units in a 5 mL normal saline solution. Two experimental test groups were conducted.
The negative control samples also had no toxicity.

[3] = Suture testing in Ethyl Acetate containing CaSt; format: biochemical; details: contaminated suture in Ethyl Acetate w/ 5% Calcium Stearate, 10 seconds; Ethyl Acetate alone 80.4 EU, no submersion 105.6 EU
Experimental: An absorbable VICRYL® (Polyglactin 910) suture (Size 1, Length: 27 in) made of a copolymer made from 90% glycolide and 10% L-lactide was exposed to a solution containing LPS (endotoxin) (9 Strands of Vicryl suture were immersed in tubing with endotoxin solution (SRW, Concentration: 3980 EU/mL) for 10 minutes at a time at ambient temperature. The sutures were air dried for 20 minutes in a vented chemical hood and then placed in round bottom and dried The suture was then immersed into Ethyl Acetate (EtAc) containing CaSt, vortexed briefly for 10 seconds, dried for 20 minutes in a vented chemical hood, and extracted in endotoxin free water at ambient temperature. The suture extracted in endotoxin free water (LRW) was then tested for LPS using the Kinetic Chromogenic Method for Endotoxin Quantitation, Charles River Laboratories, Charleston S.C.

[4] = Detection of LPS after adding CaSt powder to water spiked with LPS (Kinetic Chromogenic Method, Endosafe MCS); format: biochemical
Experimental: Water and aqueous solutions (containing LPS with various sources of endotoxin) were exposed to calcium stearate [CaSt] […] 5 mL of water solution of known endotoxin concentration (generated by spiking endotoxin-free water with water solution of known endotoxin concentration) was added to the each test tube, vortexed vigorously (1 minute) using Fisher Scientific Digital Vortex Mixer, and then placed in a warm water bath (37° C.) for 1 hour. After 1 hour, the tubes were removed from warm water bath and vortexed vigorously (1 minute). Sterile syringes with needles were used to extract the solution without removing the calcium stearate. This solution was then tested for endotoxin levels. Kinetic Chromogenic Method for Endotoxin Quantitation, using Endosafe MCS Multi Cartridge System by Charles River Laboratories, Charleston S.C.
The total LPS added to test tubes was about 5 EU, with the detected LPS after the treatment was 3% to 8% of the initial concentration.
The total LPS added to test tubes was about 14400 EU, with the detected LPS after the treatment was 0.07%-0.08% of the initial concentration.
The total LPS added to test tubes was about 14400 EU, with the detected LPS after the treatment was CaSt dependent and was a function of the amount of CaSt added. CaSt addition ranged about 100 fold from 0.0027 g to 0.25 g, with the detected LPS after the treatment was ranging from 77% to 0.19% of respectively as a percent of the initial concentration. […] In summary, there are three factors that drive the stearates performance to remove/neutralize endotoxins. These three factors, not necessarily listed in order of importance, are concentration, time of exposure, and energy in solution at the micro level.

[5] = Efficacy of sonicated CaSt suspension stored 1 month; format: biochemical
Experimental: 10 ml of LRW water (LAL reagent water, contains no endotoxin) containing 0.04 g of CaSt suspension was sonicated using Misonix Probe Sonicator, Model: S-4000, Amplitude: 30, Time: 30 seconds and then the suspension was stored for 1 month at ambient temperature. Then 1 ml of the above suspension was added to 10 ml endotoxin containing water SRW and the resulting endotoxin concentrations in the combined solution measured after 15 min and 30 min, with the results presented in Table 14.

[6] = 0.0027 g CaSt in 5 mL water, 14,400 EU spiked
[7] = 0.0108 g CaSt in 5 mL water, 14,400 EU spiked
[8] = 0.0518 g CaSt in 5 mL water, 14,400 EU spiked
[9] = 0.2502 g CaSt in 5 mL water, 14,400 EU spiked
[10] = 0.254-0.2607 g CaSt powder in 5 mL water, 14,400 EU spiked, 0.254 g CaSt powder added
[11] = 0.254-0.2607 g CaSt powder in 5 mL water, 14,400 EU spiked, 0.2607 g CaSt powder added

Calcium Stearate
Endotoxin Detected ([1]; Water with 5% Calcium Stearate, solution tested after suture removal): <1.0 EU | Average Change in Endotoxin Level ([1]; sutures 4-6 in LAL Water w/5% Calcium Stearate vs. sutures not submerged): −96.1% | Average Endotoxin Detected ([1]; sutures 4-6 in LAL Water w/5% Calcium Stearate, untreated average 84 EU): 3.27 EU | Results (toxicity observed) [2]: No Toxicity | Endotoxin Detected [3]: 23.4 EU and 21.78 EU and 25.62 EU | Endotoxin Detected [4, 6]: 11,055 EU | Percent of detected Endotoxin vs. initial concentration [4, 6]: 77% and 76.77% | Endotoxin Detected [4, 7]: 2,925 EU | Percent of detected Endotoxin vs. initial concentration [4, 7]: 20% and 20.31% | Endotoxin Detected [4, 8]: 9.4 EU | Percent of detected Endotoxin vs. initial concentration [4, 8]: 0.07% | Endotoxin Detected [4, 9]: 26.7 EU | Percent of detected Endotoxin vs. initial concentration [4, 9]: 0.19% | Percent of detected Endotoxin vs. initial concentration ([4]; 0.252-0.272 g CaSt powder in 5 mL water, 5.208 EU spiked, 37° C. 1 hour, 0.252 g CaSt powder added): <2.88% | Percent of detected Endotoxin vs. initial concentration ([4]; 0.252-0.272 g CaSt powder in 5 mL water, 5.208 EU spiked, 37° C. 1 hour, 0.258 g CaSt powder added): <8.06% | Percent of detected Endotoxin vs. initial concentration ([4]; 0.252-0.272 g CaSt powder in 5 mL water, 5.208 EU spiked, 37° C. 1 hour, 0.267 g CaSt powder added): <3.46% | Endotoxin Detected [4, 10]: 12.1 EU | Percent of detected Endotoxin vs. initial concentration [4, 10]: 0.08% | Endotoxin Detected [4, 11]: 10.3 EU | Percent of detected Endotoxin vs. initial concentration [4, 11]: 0.07% | Endotoxin EU/mL (15 min after addition of CaSt suspension) ([5]; 0.04 g CaSt in 10 ml LRW sonicated, stored 1 month, initial endotoxin 732.5 EU/mL, 15 min): 372 EU/mL and 362 EU/mL | Endotoxin EU/mL (30 min after addition of CaSt suspension) ([5]; 0.04 g CaSt in 10 ml LRW sonicated, stored 1 month, initial endotoxin 732.5 EU/mL, 30 min): 384 EU/mL and 278 EU/mL | Percent Endotoxin Removal (15 min) ([5]; sonicated CaSt suspension stored 1 month, 15 min): 49.2% and 50.6% | Percent Endotoxin Removal (30 min) ([5]; sonicated CaSt suspension stored 1 month, 30 min): 47.6% and 62.0%
